Laboratory results as given in PubChem BioAssay (NCI).
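Step 1: Grow cells in 96-well plates. Step 2: Expose to compound for 48 hours at 5 concentrations. Step 3: Interpolate endpoints linearly; if unreached, use highest concentration. TGI: concentration producing complete growth inhibition.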

What was measured:
Assay in all cases: NCI anticancer screen, dose series, 48 h
[1] = tested on: RPMI-8226 leukemia
[2] = tested on: SNB-78 CNS
[3] = tested on: CAKI-1 renal
[4] = tested on: A549 NSCLC
[5] = tested on: U251 CNS
[6] = tested on: SF-268 CNS
[7] = tested on: LOX IMVI melanoma
[8] = tested on: NCI-H23 lung
[9] = tested on: HOP-62 NSCLC
[10] = tested on: HOP-92 NSCLC
[11] = tested on: SW-620 colon
[12] = tested on: DLD-1 colon
[13] = tested on: SF-295 CNS
[14] = tested on: UACC-62 melanoma
[15] = tested on: MALME-3M melanoma
[16] = tested on: RXF 393 renal
[17] = tested on: EKVX NSCLC
[18] = tested on: OVCAR-5 ovarian
[19] = tested on: UO-31 renal
[20] = tested on: SF-539 CNS
[21] = tested on: ACHN renal
[22] = tested on: NCI-H522 lung
[23] = tested on: OVCAR-8 ovarian
[24] = tested on: HCT-15 colon
[25] = tested on: DMS 273 small cell lung
[26] = tested on: COLO 205 colon
[27] = tested on: A498 renal
[28] = tested on: KM12 colon
[29] = tested on: DMS 114 small cell lung
[30] = tested on: UACC-257 melanoma
[31] = tested on: RXF-631 renal
[32] = tested on: HCC-2998 colon
[33] = tested on: 786-0 renal
[34] = tested on: M19-MEL melanoma
[35] = tested on: SK-MEL-28 melanoma
[36] = tested on: M14 melanoma
[37] = tested on: HOP-18 NSCLC
[38] = tested on: OVCAR-4 ovarian
[39] = tested on: KM20L2 colon
[40] = tested on: NCI-H226 lung
[41] = tested on: CCRF-CEM leukemia
[42] = tested on: IGROV1 ovarian
[43] = tested on: HT29 colon
[44] = tested on: LXFL 529 NSCLC
[45] = tested on: SNB-19 CNS
[46] = tested on: K-562 leukemia
[47] = tested on: OVCAR-3 ovarian
[48] = tested on: HCT-116 colon
[49] = tested on: SN12C renal
[50] = tested on: MOLT-4 leukemia
[51] = tested on: SNB-75 CNS
[52] = tested on: NCI-H460 lung
[53] = tested on: SK-OV-3 ovarian
[54] = tested on: XF 498 CNS
[55] = tested on: TK-10 renal
[56] = tested on: HL-60(TB) leukemia
[57] = tested on: SK-MEL-2 melanoma
[58] = tested on: SK-MEL-5 melanoma
[59] = tested on: SR leukemia

Which results are given for `CN(C(=O)c1ccc([N+](=O)[O-])cc1)c1ccccc1`?
TGI [1]: > 100 µM; TGI [2]: > 100 µM; TGI [3]: > 100 µM; TGI [4]: > 100 µM; TGI [5]: > 100 µM; TGI [6]: > 100 µM; TGI [7]: > 100 µM; TGI [8]: > 100 µM; TGI [9]: > 100 µM; TGI [10]: > 100 µM; TGI [11]: > 100 µM; TGI [12]: > 100 µM; TGI [13]: > 100 µM; TGI [14]: > 10 µM; TGI [15]: > 100 µM; TGI [16]: > 100 µM; TGI [17]: > 100 µM; TGI [18]: > 100 µM; TGI [19]: > 100 µM; TGI [20]: > 100 µM; TGI [21]: > 100 µM; TGI [22]: > 100 µM; TGI [23]: > 100 µM; TGI [24]: > 100 µM; TGI [25]: > 100 µM; TGI [26]: > 100 µM; TGI [27]: > 100 µM; TGI [28]: > 100 µM; TGI [29]: > 10 µM; TGI [30]: > 100 µM; TGI [31]: > 100 µM; TGI [32]: > 100 µM; TGI [33]: > 100 µM; TGI [34]: > 100 µM; TGI [35]: > 100 µM; TGI [36]: > 100 µM; TGI [37]: > 100 µM; TGI [38]: > 100 µM; TGI [39]: > 100 µM; TGI [40]: > 100 µM; TGI [41]: > 100 µM; TGI [42]: > 100 µM; TGI [43]: > 100 µM; TGI [44]: > 100 µM; TGI [45]: > 100 µM; TGI [46]: > 10 µM; TGI [47]: > 100 µM; TGI [48]: > 100 µM; TGI [49]: > 100 µM; TGI [50]: > 100 µM; TGI [51]: > 100 µM; TGI [52]: > 100 µM; TGI [53]: > 100 µM; TGI [54]: > 100 µM

Which TGI [1] does the source give for `COC(=O)/C([Se]c1c(C)cc(C)cc1C)=C(/[Se]c1c(C)cc(C)cc1C)C(=O)OC` here?
The TGI was > 100 µM.

What about the TGI [2] of the same compound?
The TGI was > 100 µM.

And the TGI [3]?
The TGI was > 100 µM.

What about the TGI [4] of the same compound?
The TGI was > 100 µM.

What about the TGI [55] of the same compound?
Its TGI is > 100 µM.

What about the TGI [5] of the same compound?
The TGI was > 100 µM.

And the TGI [6]?
Its TGI is > 100 µM.

What about the TGI [7] of the same compound?
The TGI was > 100 µM.

What about the TGI [8] of the same compound?
Its TGI is > 100 µM.

And the TGI [9]?
The TGI was > 100 µM.

And the TGI [10]?
The TGI was > 100 µM.

And the TGI [11]?
Its TGI is > 100 µM.

And the TGI [12]?
Its TGI is > 100 µM.

What about the TGI [13] of the same compound?
The TGI was > 100 µM.

And the TGI [14]?
Its TGI is > 100 µM.

What about the TGI [15] of the same compound?
Its TGI is > 100 µM.

And the TGI [16]?
Its TGI is > 100 µM.

And the TGI [17]?
Its TGI is > 100 µM.

And the TGI [18]?
The TGI was > 100 µM.

And the TGI [19]?
Its TGI is > 100 µM.

What about the TGI [20] of the same compound?
Its TGI is > 100 µM.

And the TGI [21]?
Its TGI is > 100 µM.

What about the TGI [56] of the same compound?
The TGI was > 100 µM.

What about the TGI [22] of the same compound?
The TGI was > 100 µM.

And the TGI [23]?
The TGI was > 100 µM.

And the TGI [24]?
The TGI was > 100 µM.

And the TGI [25]?
The TGI was > 100 µM.

And the TGI [26]?
Its TGI is > 100 µM.

What about the TGI [27] of the same compound?
The TGI was > 100 µM.

What about the TGI [28] of the same compound?
The TGI was > 100 µM.

What about the TGI [29] of the same compound?
The TGI was > 100 µM.

And the TGI [30]?
The TGI was > 100 µM.

What about the TGI [31] of the same compound?
The TGI was > 100 µM.

And the TGI [32]?
Its TGI is > 100 µM.

And the TGI [33]?
The TGI was > 100 µM.

And the TGI [34]?
The TGI was > 100 µM.

And the TGI [57]?
The TGI was > 100 µM.

What about the TGI [36] of the same compound?
Its TGI is > 100 µM.

What about the TGI [37] of the same compound?
Its TGI is > 100 µM.

What about the TGI [58] of the same compound?
The TGI was > 100 µM.

And the TGI [38]?
The TGI was > 100 µM.

What about the TGI [39] of the same compound?
The TGI was > 100 µM.

What about the TGI [40] of the same compound?
The TGI was > 100 µM.

What about the TGI [41] of the same compound?
Its TGI is > 100 µM.

What about the TGI [42] of the same compound?
The TGI was > 100 µM.

And the TGI [43]?
The TGI was > 100 µM.

And the TGI [44]?
The TGI was > 100 µM.

What about the TGI [45] of the same compound?
Its TGI is > 100 µM.

And the TGI [46]?
Its TGI is > 100 µM.

And the TGI [47]?
Its TGI is > 100 µM.

What about the TGI [48] of the same compound?
The TGI was > 100 µM.

And the TGI [59]?
Its TGI is > 100 µM.

And the TGI [49]?
The TGI was > 100 µM.

And the TGI [50]?
The TGI was > 100 µM.

What about the TGI [51] of the same compound?
The TGI was > 100 µM.

And the TGI [52]?
Its TGI is > 100 µM.

And the TGI [53]?
Its TGI is > 100 µM.
